The record followed here is patent publication US20120101110A1, “Diaza-spiro[5.5]undecanes” (priority 2010, published 2012).

Where two headings read alike, the source gives them in different places.

The target in test [1] is T1, human orexin 2 receptors (Homo sapiens, UniProt O43614).
T1 sequence (O43614 1-444): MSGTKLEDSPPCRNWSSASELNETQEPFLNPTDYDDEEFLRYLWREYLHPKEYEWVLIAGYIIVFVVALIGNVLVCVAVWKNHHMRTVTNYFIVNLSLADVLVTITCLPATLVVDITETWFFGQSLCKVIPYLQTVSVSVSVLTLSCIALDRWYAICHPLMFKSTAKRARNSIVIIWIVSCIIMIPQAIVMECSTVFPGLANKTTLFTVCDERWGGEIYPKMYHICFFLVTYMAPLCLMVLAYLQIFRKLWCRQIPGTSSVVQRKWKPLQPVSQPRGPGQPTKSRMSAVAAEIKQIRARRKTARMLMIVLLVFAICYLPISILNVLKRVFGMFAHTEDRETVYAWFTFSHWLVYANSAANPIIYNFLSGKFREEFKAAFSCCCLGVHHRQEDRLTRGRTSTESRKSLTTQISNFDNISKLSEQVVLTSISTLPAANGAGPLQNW
The experiment in a line: Calcium accumulation in cells (FLIPR), hOx2R. It is filed as cell-based. The following applies: cells expressing human orexin 2 receptor; inhibition of orexin A-induced calcium accumulation; Cheng and Prusoff correction.

In test [2] the target is T2, human orexin 1 receptors (Homo sapiens, UniProt O43613).
T2 sequence (O43613 1-425): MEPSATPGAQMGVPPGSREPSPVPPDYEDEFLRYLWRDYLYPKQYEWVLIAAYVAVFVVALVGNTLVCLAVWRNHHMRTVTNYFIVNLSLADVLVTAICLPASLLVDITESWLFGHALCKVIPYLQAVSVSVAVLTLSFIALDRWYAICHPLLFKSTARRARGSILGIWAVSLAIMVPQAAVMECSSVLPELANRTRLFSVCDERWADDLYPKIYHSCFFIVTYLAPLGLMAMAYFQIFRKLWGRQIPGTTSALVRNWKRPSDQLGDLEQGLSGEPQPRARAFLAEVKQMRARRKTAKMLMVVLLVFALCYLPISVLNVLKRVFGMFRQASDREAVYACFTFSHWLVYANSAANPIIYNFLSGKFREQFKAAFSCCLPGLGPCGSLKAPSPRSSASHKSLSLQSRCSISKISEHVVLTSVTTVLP
The experiment in a line: Radioligand binding assay ([3H]-SB649868 competition), hOx1R. The following applies: competition with about 1 nM [3H]-SB649868; CHO or HEK cell membranes expressing human orexin 1 receptor. Summed up:
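Membranes from hOx1R-expressing cells incubated 1 h at room temperature with about 1 nM [3H]-SB649868 and test compound, in triplicate. Buffer was 10 mM HEPES pH 7.5, 0.5% BSA, 5 mM MgCl2, 1 mM CaCl2, 0.05% tween; 10 μM almorexant defined non-specific binding. Filtration then counting of bound radioactivity; values reported as Kd.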

Test [3] has as its target T1, human orexin 2 receptors. The experiment in a line: Radioligand binding assay ([3H]-SB649868 competition), hOx2R. An outline of the steps:
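Membranes were incubated 1 h at room temperature in 10 mM HEPES pH 7.5 with 0.5% BSA, 5 mM MgCl2, 1 mM CaCl2 and 0.05% Tween, with about 1 nM [3H]-SB649868 and test compounds in triplicate. Non-specific binding was defined with 10 μM almorexant, and bound radioactivity was counted.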

The target in test [4] is T2, human orexin 1 receptors. Briefly: Calcium accumulation in cells (FLIPR), hOx1R.
Protocol: Cells expressing human orexin 1 or human orexin 2 receptors, were seeded at 8,000 cells/well in 384 well black-walled clear bottom, poly-D-lysine coated plates. After 24 h, the medium was removed and cells were washed once with phosphate buffered saline and serum-deprived overnight in assay buffer (130 mM NaCl, 5.4 mM KCl, 1.8 mM CaCl2, 0.8 mM MgSO4, 0.9 mM NaH2PO4, 25 mM glucose, 20 mM HEPES, pH 7.4) containing bovine serum albumin (1% w/v).
On the day of the experiment, the cells seeded in black plates were treated with assay buffer containing the Ca^2+sensitive fluorescent dye Fluo-4-AM (2 μM), and probenecid (0.1 mM). After 1 h plates were washed twice with, and resuspended in, assay buffer containing probenecid (0.1 mM) using a multi plate washer. The plates were placed into a FLIPR II (Fluorometric Imaging Plate Reader, Molecular Devices, Sunnyvale, Calif., USA) and baseline fluorescence (fluorescence light units, FLU) was measured (5 measurements, 2 S each; laser excitation 488 nm at 0.6-1 W, CCD camera exposure 0.4 s) before addition of buffer alone (basal) or containing test compounds (either compound of formula I alone, agonist alone or agonist in the presence of various concentrations of compounds of formula I). Fluorescence measurements were then continued every 1 S for 120 S followed by every 4 S for 240 S.
Compounds of formula I were tested usually in a concentration range from 10^−9 M to 10^−5 M. In the second round, performed one hour later (to allow for equilibration), Orexin A was tested either in the absence (calibration curves, Orexin A agonist controls) or in the presence of compounds of formula I to determine antagonism.
Inhibition data is expressed in Table 2 as Ki [μM], converted by the Cheng and Prusoff correction (Ki=IC50/1+(L/EC50)), where IC50 is the 50% inhibition value determined in concentration response inhibition curves, EC50 is the half maximal activation concentration determined for orexin A in concentration response curves and L is the concentration of orexin A used in inhibition experiments performed in with a submaximal concentration of orexin A in the presence of up to 8 increasing concentrations of compound of formula I. Inhibition data is also expressed in Table 2 as % inhibition value measured at a concentration of 10 μM of selected compounds of formula I.
[5] abbreviates: competition with about 1 nM [3H]-SB649868, CHO or HEK cell membranes expressing human orexin 2 receptor, read-out: binding hOx2R Kd.

As usually defined, the Ki is a dissociation constant, usually derived from enzyme kinetics or from competition with a known ligand. By Kd is commonly meant the constant that tells how readily two partners part at equilibrium. Broadly, the inhibition is the share of the control response that was lost under treatment.

As for `Cc1cc(C)nc(N2CCC3(CCCN(Cc4nn(C)cc4-c4ccccc4)C3=O)CC2)n1` [Example 107, 9-(4,6-dimethylpyrimidin-2-yl)-2-((1-methyl-4-phenyl-1H-pyrazol-3-yl)methyl)-2,9-diazaspiro[5.5]undecan-1-one], the Ki on human orexin 2 receptors [1] was 20 nM; on human orexin 1 receptors [4], 833 nM. Besides, the Kd came to 2250 nM on human orexin 1 receptors [2] and 166 nM at human orexin 2 receptors [3] (setting [5]).

With `Cc1cc(C)nc(N2CCC3(CCCN(Cc4nc(C)oc4-c4ccccc4)C3=O)CC2)n1` [Example 108, 9-(4,6-dimethylpyrimidin-2-yl)-2-((2-methyl-5-phenyloxazol-4-yl)methyl)-2,9-diazaspiro[5.5]undecan-1-one], the Ki at human orexin 2 receptors [1] was found to be 18 nM; on human orexin 1 receptors [4] it was 507 nM. Moreover, the Kd was 852 nM on human orexin 1 receptors [2] and 72 nM on human orexin 2 receptors [3] (setting [5]).

For the molecule `Cc1cc(C)nc(N2CCC3(CCCN(Cc4nc(C)sc4-c4ccccc4)C3=O)CC2)n1` [Example 109, 9-(4,6-dimethylpyrimidin-2-yl)-2-((2-methyl-5-phenylthiazol-4-yl)methyl)-2,9-diazaspiro[5.5]undecan-1-one], the inhibition constant (Ki) at human orexin 2 receptors [1] worked out at 42 nM; on human orexin 1 receptors [4], 1370 nM. In addition, the equilibrium dissociation constant (Kd) at human orexin 1 receptors [2] worked out at 2560 nM; at human orexin 2 receptors [3] (setting [5]), 188 nM.

As for `COc1cccc(-c2sc(C)nc2CN2CCCC3(CCN(c4nc(C)cc(C)n4)CC3)C2=O)c1` [Example 110, 9-(4,6-dimethylpyrimidin-2-yl)-2-((5-(3-methoxyphenyl)-2-methylthiazol-4-yl)methyl)-2,9-diazaspiro[5.5]undecan-1-one], the Ki was determined as 3.8 nM on human orexin 2 receptors [1] and 213 nM at human orexin 1 receptors [4]. Moreover, the dissociation constant Kd was determined as 236 nM on human orexin 1 receptors [2] and 7 nM on human orexin 2 receptors [3] (setting [5]).

With `CCc1cc(C)nc(N2CCC3(CCCN(Cc4c[nH]c5ccccc45)C3=O)CC2)n1` [Example 111, 2-((1H-indol-3-yl)methyl)-9-(4-ethyl-6-methylpyrimidin-2-yl)-2,9-diazaspiro[5.5]undecan-1-one], the results for the inhibition constant (Ki) at human orexin 2 receptors [1] and at human orexin 1 receptors [4] were 11 nM and 761 nM, respectively. Also, the Kd on human orexin 1 receptors [2] was 835 nM; at human orexin 2 receptors [3] (setting [5]), 44 nM.

With `COc1cc(C)nc(N2CCC3(CCCN(Cc4n[nH]c5ccccc45)C3=O)CC2)n1` [Example 112, 2-((1H-indazol-3-yl)methyl)-9-(4-methoxy-6-methylpyrimidin-2-yl)-2,9-diazaspiro[5.5]undecan-1-one], the inhibition constant (Ki) at human orexin 2 receptors [1] amounted to 6.1 nM; on human orexin 1 receptors [4], 255 nM. For the same molecule, the figures for the Kd at human orexin 1 receptors [2] and on human orexin 2 receptors [3] (setting [5]) were 912 nM and 82 nM, respectively.

As to `Cc1cc(N(C)C)nc(N2CCC3(CCCN(Cc4c[nH]c5ccccc45)C3=O)CC2)n1` [Example 113, 2-((1H-indol-3-yl)methyl)-9-(4-(dimethylamino)-6-methylpyrimidin-2-yl)-2,9-diazaspiro[5.5]undecan-1-one], the inhibition constant (Ki) at human orexin 2 receptors [1] is 21 nM; on human orexin 1 receptors [4], 1430 nM. Moreover, the values for the Kd at human orexin 1 receptors [2] and at human orexin 2 receptors [3] (setting [5]) were 389 nM and 28 nM, respectively.

`COc1ccnc(N2CCC3(CCCN(Cc4ccccc4-c4nc(C)no4)C3=O)CC2)n1` [Example 114, 9-(4-methoxypyrimidin-2-yl)-2-(2-(3-methyl-1,2,4-oxadiazol-5-yl)benzyl)-2,9-diazaspiro[5.5]undecan-1-one]: the inhibitory constant (Ki) came out at 30 nM on human orexin 2 receptors [1] and 1530 nM at human orexin 1 receptors [4]. For the same molecule, the Kd at human orexin 1 receptors [2] was determined as 2140 nM; on human orexin 2 receptors [3] (setting [5]) it was 231 nM.

Consider `COCc1ccc2[nH]cc(CN3CCCC4(CCN(c5nc(C)cc(C)n5)CC4)C3=O)c2c1` [Example 116, 9-(4,6-dimethylpyrimidin-2-yl)-2-((5-(methoxymethyl)-1H-indol-3-yl)methyl)-2,9-diazaspiro[5.5]undecan-1-one], for which the Ki at human orexin 2 receptors [1] amounted to 0.3 nM; on human orexin 1 receptors [4], 33 nM. The equilibrium dissociation constant (Kd) at human orexin 1 receptors [2] was 94 nM; on human orexin 2 receptors [3] (setting [5]), 2 nM.

Turning to `Cc1cc(C)nc(N2CCC3(CCCN(Cc4c[nH]c5ccc(-n6cccn6)cc45)C3=O)CC2)n1` [Example 117, 2-((5-(1H-pyrazol-1-yl)-1H-indol-3-yl)methyl)-9-(4,6-dimethylpyrimidin-2-yl)-2,9-diazaspiro[5.5]undecan-1-one], the results for the inhibitory constant (Ki) at human orexin 2 receptors [1] and at human orexin 1 receptors [4] were 1.3 nM and 37 nM, respectively. Besides, the Kd at human orexin 1 receptors [2] is 1020 nM; on human orexin 2 receptors [3] (setting [5]), 27 nM.

Take `Cc1cc(C)nc(N2CCC3(CCCN(Cc4nn(C)nc4Br)C3=O)CC2)n1` [Example 118, 2-((5-bromo-2-methyl-2H-1,2,3-triazol-4-yl)methyl)-9-(4,6-dimethylpyrimidin-2-yl)-2,9-diazaspiro[5.5]undecan-1-one]: the Ki at human orexin 2 receptors [1] was determined as 79 nM; on human orexin 1 receptors [4] it was 3580 nM. For the same molecule, the Kd at human orexin 1 receptors [2] is 2110 nM; at human orexin 2 receptors [3] (setting [5]), 178 nM.

For `COCc1cccc(-c2nn(C)nc2CN2CCCC3(CCN(c4nc(C)cc(C)n4)CC3)C2=O)c1` [Example 119, 9-(4,6-dimethylpyrimidin-2-yl)-2-((5-(3-(methoxymethyl)phenyl)-2-methyl-2H-1,2,3-triazol-4-yl)methyl)-2,9-diazaspiro[5.5]undecan-1-one], the inhibitory constant (Ki) is 3.9 nM at human orexin 2 receptors [1] and 868 nM at human orexin 1 receptors [4]. Also, the values for the Kd at human orexin 1 receptors [2] and on human orexin 2 receptors [3] were 1330 nM and 28 nM, respectively.

As for `COc1cccc(-c2nn(C)nc2CN2CCCC3(CCN(c4nc(C)cc(C)n4)CC3)C2=O)n1` [Example 120, 9-(4,6-dimethylpyrimidin-2-yl)-2-((5-(6-methoxypyridin-2-yl)-2-methyl-2H-1,2,3-triazol-4-yl)methyl)-2,9-diazaspiro[5.5]undecan-1-one], the Ki on human orexin 2 receptors [1] came to 32 nM. The Kd is more than 10000 nM at human orexin 1 receptors [2] and 197 nM at human orexin 2 receptors [3] (setting [5]). For the same molecule, at human orexin 1 receptors [4] (read-out: FLIPR hOx1R % inhibition value), the inhibition at 10 µM was 29%.

`COc1cncc(-c2nn(C)nc2CN2CCCC3(CCN(c4nc(C)cc(C)n4)CC3)C2=O)c1` [Example 121, 9-(4,6-dimethylpyrimidin-2-yl)-2-((5-(5-methoxypyridin-3-yl)-2-methyl-2H-1,2,3-triazol-4-yl)methyl)-2,9 diazaspiro[5.5]undecan-1-one]: the inhibition constant Ki on human orexin 2 receptors [1] is 2 nM; at human orexin 1 receptors [4], 315 nM. The Kd at human orexin 1 receptors [2] was 196 nM; on human orexin 2 receptors [3] (setting [5]), 15 nM.

Take `COCc1cccc(-c2ocnc2CN2CCCC3(CCN(c4nc(C)cc(C)n4)CC3)C2=O)c1` [Example 123, 9-(4,6-dimethylpyrimidin-2-yl)-2-((5-(3-(methoxymethyl)phenyl)oxazol-4-yl)methyl)-2,9-diazaspiro[5.5]undecan-1-one]: the inhibition constant (Ki) at human orexin 2 receptors [1] was 18 nM; on human orexin 1 receptors [4], 1780 nM. In addition, the dissociation constant Kd on human orexin 1 receptors [2] turned out to be 3240 nM; at human orexin 2 receptors [3] (setting [5]) it was 71 nM.

With `COCc1cccc(-c2oc(C)nc2CN2CCCC3(CCN(c4nc(C)cc(C)n4)CC3)C2=O)c1` [Example 124, 9-(4,6-dimethylpyrimidin-2-yl)-2-((5-(3-(methoxymethyl)phenyl)-2-methyloxazol-4-yl)methyl)-2,9 diazaspiro[5.5]undecan-1-one], the inhibition constant Ki stood at 1.2 nM on human orexin 2 receptors [1] and 101 nM on human orexin 1 receptors [4]. In addition, the dissociation constant (Kd) was found to be 368 nM on human orexin 1 receptors [2] and 19 nM at human orexin 2 receptors [3] (setting [5]).
